Laboratory results taken from patent publication US8187373B2, “Printing inks for offset and/or high printing containing NIR absorbers and NIR absorbers soluble in offset and/or high printing inks” (BASF SE, priority 2004, dated 2012).

Key:
[1] = Extinction of a thin layer of printing varnish containing NIR absorber (absorption spectrum 400-1000 nm); type: physicochemical; conditions: 1.0% by weight NIR absorber
Experimental: Two conventional varnishes for the preparation of offset printing inks were used for the test. Varnishes are prepared formulations comprising binder and solvent, but as yet without colorant. In this way, it is possible to study the behavior of the NIR absorber also spectroscopically without interference by the colorant.
A varnish for the preparation of heatset inks comprising about 45% by weight of a low-aromatics mineral oil (boiling range from 240 to 270° C.), about 45% by weight of a rosin-modified phenol resin and about 10% by weight of an alkyd resin was used, as well as a varnish for the preparation of sheet-fed offset inks comprising about 45% by weight of a low-aromatics mineral oil (boiling range from 260 to 290° C.), about 45% by weight of a rosin-modified phenol resin and about 10% by weight of linseed oil.
Furthermore, a thin layer of above liquids was produced and was investigated spectroscopically. For this purpose, the above liquids were diluted 1:5 with dichloromethane, and the resulting solution was applied to a microscope slide by means of a knife coater so that, after evaporation of the dichloromethane, a layer of about 2 μm thick remained. An absorption spectrum (400-1000 nm) of this layer was then recorded after 2 hours.

[2] = Testing of the NIR absorbers in yellow heatset offset printing ink, printed on paper; type: physicochemical; conditions: 0.5% by weight in commercial yellow heatset offset printing ink
Experimental: In each case 0.5% by weight of the absorber A1 or A2 not according to the invention was added to a commercial yellow heatset offset printing ink, and the mixtures were thoroughly stirred.
Samples of the inks obtained were printed on paper.
The procedure was as in the comparative example, except that in each case 0.5% by weight of the novel NIR absorber B2 or B4 was used.

Row | extinction E at 810 nm [1] | dissolution of NIR absorber in the offset ink [2] | Compound
1 | < 0.01 | did not dissolve | CCN1/C(=C/C=C2\CCC(/C=C/C3=[N+](CC)c4ccccc4C3(C)C)=C2Cl)C(C)(C)c2ccccc21 [Compound A2]
2 | 0.83 | dissolved completely | CCN1/C(=C/C=C2\CCC(/C=C/C3=[N+](CC)c4ccccc4C3(C)C)=C2Cl)C(C)(C)c2ccccc21 [Compound B4]
